Source: patent publication US6455535B1, “Substituted aminoquinazolinone (thione) derivatives or salts thereof, intermediates thereof, and pest controllers and a method for using the same” (Nihon Nohyaku Co., Ltd., priority 1999, dated 2002)

Columns and labels:
[1] = system: greenhouse whitefly (Trialeurodes vaporariorum); experiment: Insecticidal test on greenhouse whitefly, tomato leaf spray (Test Example 3); assay type: in vivo; conditions: 100 ppm test liquid sprayed on tomato leaf, 20 adults inoculated; for mortality at 100 ppm: Trialeurodes vaporariorum, read-out: insecticidal effect rating (mortality of adults)
Protocol: Insecticidal Test on Greenhouse Whitefly (Trialeurodes vaporariorum)
Each compounds of the present invention listed in Table 3 and Table 4 was dispersed in and diluted with water to prepare a test liquid containing 100 ppm of the test compound. By use of a spraygun, the test liquid was sprayed on the surface of a leaf of tomato plant put in a 20 ml-vial bottle containing water on a turn table. After air-dried, the leaf treated with the test liquid was put in a glass cylinder, and inoculated with 20 adults of greenhouse whitefly thereon. After the inoculation, the leaf was placed in a greenhouse, and the number of adults of greenhouse whitefly was counted. The mortality of the adults was calculated similar to that of conducted in Test Example 2, and the insecticidal effect of each one of the test compounds was evaluated by the method identical to Test Example 1.

[2] = system: brown rice planthopper (Nilaparvata lugens); experiment: whole plant or invertebrate; assay type: in vivo; conditions: 192 h, rice seedlings immersed 30 seconds, 10 third-instar nymphs, eight days after inoculation, read-out: insecticidal effect rating (corrected larval mortality)
Excerpt: Insecticidal Effect on Brown Rice Planthopper (Nilaparvata lugens)
Each substituted aminoquinazolinone (thione) derivative of the general formula (I) or salt thereof of the present invention listed in Tables 3 and 4 was dispersed in and diluted with water to obtain a 500 ppm liquid chemical. Rice seedlings (cultivar: Nihonbare) were immersed in the liquid chemical for 30 seconds and air-dried, after which each seedling was placed in a glass test tube and inoculated with 10 third-instar nymphs of brown rice planthopper, and the test tube was pluged with a cotton plug. Eight days after the inoculation, the dead and alive were counted. The mortality was calculated by the following equation and the control effect was judged according to the criterion described below.
Corrected larval mortality (%)={(Ca/c−Ta/T)/Ca/c}×100
Ta: number of alive nymphs in treated groups
T: number of inoculated nymphs in treated groups
Ca: number of alive numphs in untreated groups
c: number of inoculated nymphs in untreated groups
Criterion: the same as in Test Example 1.

Structure (SMILES)	mortality at 100 ppm [1] [%]	mortality at 500 ppm [2] [%]	insecticidal effect rating (mortality of adults) [1]
O=C1Nc2ccc(OC(F)(F)F)cc2CN1NCc1cccnc1 [Compound No. 208, 3-(3-pyridylmethylamino)-3,4-dihydro-6-trifluoromethoxy-2(1H)-quinazolinone]	100	100	
O=C1Nc2ccc(-c3ccccc3)cc2CN1N=Cc1cccnc1 [compound 86]			D or higher
O=C1Nc2ccc(-c3ccc(Cl)cc3)cc2CN1N=Cc1cccnc1 [compound 90]			D or higher
O=C1Nc2ccc(OC(F)F)cc2CN1N=Cc1cccnc1 [compound 38]			D or higher
O=C1Nc2ccc(OC(F)(F)F)cc2CN1/N=C/c1cccnc1 [Compound No. 30, 3-(3-pyridylmethylideneamino)-3,4-dihydro-6-trifluoromethoxy-2(1H)-quinazolinone]	100	100	
CCOC(=O)c1ccc2c(c1)CN(N=Cc1cccnc1)C(=O)N2 [compound 78]			D or higher
O=C1Nc2ccc(C(F)(F)F)cc2CN1N=Cc1cccnc1 [compound 14]			D or higher
O=C1Nc2ccc(I)cc2CN1N=Cc1cccnc1 [compound 10]			D or higher
